Experimental data from US20260183253A1, “TREATING LIVER CANCERS WITH HYDROXYUREAMETHYL ACYLFULVENE” (Lantern Pharma Inc., priority 2023, published 2026).

Test system: liver cancer cell lines including SNU387, SNU475, SNU449, and HEPG2
Assay: Cell viability, CellTiter-Fluor assay, 72 h treatment
Format: cell-based
Details: values shown only in FIG. 1
Protocol: Liver cancer cell lines including SNU387, SNU475, SNU449, and HEPG2, were obtained from the American Type Culture Collection (ATCC), ensuring standardized and reliable cell sources. […] Cells were seeded into 96-well plates at a density optimized for exponential growth, allowing sufficient space for cellular proliferation during the course of the experiment. Each well was seeded with an equal number of cells to ensure consistency across the experiment. Following seeding, cells were allowed to adhere and acclimatize for 24 hours at 37° C. in a humidified incubator with 5% CO2, maintaining optimal growth conditions. Once acclimated, the cells were treated with either a vehicle control (DMSO) or varying concentrations of LP-184. […]
Following the 72-hour treatment period, cell viability was assessed using the CellTiter-Fluor® assay from Promega, a sensitive fluorescence-based assay that quantifies the number of viable cells based on the presence of active cellular proteases. […]
The plates were then incubated for an additional 30 minutes at 37° C. to allow the enzymatic reaction to occur, resulting in the cleavage of the fluorogenic substrate by viable cells. […] The fluorescence signal was measured using a plate reader set to an excitation wavelength of 400 nm and an emission wavelength of 505 nm, parameters optimized for the GF-AFC substrate. […]

IC50 (nM) against various liver cancer cell lines: nanomolar potency
Structure (SMILES): CC1=C(CN(O)C(N)=O)C2=C(C)C3(CC3)[C@@](C)(O)C(=O)C2=C1 [LP-184, (−)-hydroxyureamethyl acylfulvene]
